Test results as given in US9890146B2, “Compound having selective EP2 agonist activity” (ONO PHARMACEUTICAL CO., LTD., priority 2014, dated 2018).

biological target: T1, human EP2 (Homo sapiens, UniProt P43116); test: Measurement of EP2 agonist activity (measurement of cAMP concentration); type: cell-based; conditions: EP2-CHO cells, cAMP production (HTRF), reaction 30 minutes at room temperature; read-out: EP2 agonist activity EC50
T1 construct: expressed in transfected cells; host or cells: CHO cells (EP2-CHO)
Method: Using Chem1 cells or CHO cells in which various prostanoid receptors were forcibly expressed, respectively, agonist activities of test compounds on various prostanoid receptors was determined employing, as a measure, an intracellular cyclic AMP (hereinbelow, abbreviated as “cAMP”) production amount or an intracellular calcium concentration.
The test compound and a control substance (PGE2 and PGF2α) were dissolved in dimethyl sulfoxide (DMSO) to prepare a 10 mmol/L solution. The 10 mmol/L solution thus prepared was thawed upon use, then serially diluted with DMSO, and then diluted with a buffer solution for measurement use or a buffer solution for measurement use 2, and then the resulting solution was subjected to an experiment.
Cells forcibly expressing various prostanoid receptors were standing-cultured at 37° C. in the presence of 5% CO2 using a DMEM medium (Sigma) (for culturing FP-Chem1) containing inactivated (56° C., 30 minutes) 9.8 vol % nondialysed-FBS (Life Technologies), 1 vol % Non Essential Amino Acids (Life Technologies), 10 mmol/L HEPES Buffer Solution (Life Technologies), 0.5 vol % GENETICIN (Life Technologies) and 1% penicillin-streptomycin (Life Technologies) or an α-MEM medium (Sigma) (for culturing EP2-CHO) containing inactivated (56° C., 30 minutes) 9.8 vol % dialysed-FBS (Life Technologies) and penicillin-streptomycin-glutamine (Life Technologies). Subculturing was carried out by the following manner.
The medium was removed, and washed with a phosphate-buffered physiological saline not containing Ca^2+ and Mg^2+ one time. A proper amount of trypsin-EDTA (Life Technologies) was added, and this was incubated at room temperature, cells were peeled, and a medium having a volume which is 10-fold a volume of trypsin-EDTA was added to stop an enzymatic reaction. After cells were recovered into a centrifuging tube, and centrifuged at room temperature for 3 minutes at 120 g, the supernatant was removed. Cells were suspended in a proper amount of a medium, and seeded in a culturing flask.
On the measurement day, a medium was removed, and EP2-CHO was washed with a phosphate-buffered physiological saline containing 2 mmol/L EDTA and not containing Ca^2+ and Mg^2+ one time. A proper amount of the phosphate-buffered physiological saline containing 2 mmol/L EDTA and not containing Ca^2+ and Mg^2+ was added, this was incubated at 37° C. in the presence of 5% CO2, cells were peeled, cells were recovered into a centrifuging tube, and centrifuged at room temperature for 3 minutes at 550 g, and the supernatant was removed. Cells were suspended in a proper amount of a buffer solution for measurement 1 (MEM medium (Invitrogen) containing 1.0 w/v % bovine serum albumin (Sigma) and 2 μmol/L diclofenac (Sigma)), and centrifuged at room temperature for 3 minutes at 200 g, and the supernatant was removed. Cells were suspended in a buffer solution for measurement 2 (MEM medium (Invitrogen) containing 1.0 w/v % bovine serum albumin (Sigma), 2 μmol/L diclofenac (Sigma) and 1 mmol/L 3-isobutyl-1-methylxanthine), and each 25 μL of the suspension was dispensed into a 96-well ½ area plate so that the cell number per well became […]. A buffer solution for measurement 2 (25 μL) containing an agonist at a variety of concentrations was added to carry out a reaction at room temperature for 30 minutes. Measurement of a cAMP concentration was carried out using the cAMP HTRF HiRange kit (CIS bio International). According to the two step protocol of the kit manual, each 25 μL of cAMP-D2 and Cryptase diluted with a lysis buffer were added, and this was incubated at room temperature for 1 hour. After incubation for 1 hour, time resolution fluorescence at 620 nm and 660 nm when excited at 340 nm was measured using SpectraMax M5e (Molecular Device), and a ratio (TRF ratio) was obtained, thereby, a cAMP concentration was calculated from a calibration line. […]

T1 sequence (P43116 whole entry): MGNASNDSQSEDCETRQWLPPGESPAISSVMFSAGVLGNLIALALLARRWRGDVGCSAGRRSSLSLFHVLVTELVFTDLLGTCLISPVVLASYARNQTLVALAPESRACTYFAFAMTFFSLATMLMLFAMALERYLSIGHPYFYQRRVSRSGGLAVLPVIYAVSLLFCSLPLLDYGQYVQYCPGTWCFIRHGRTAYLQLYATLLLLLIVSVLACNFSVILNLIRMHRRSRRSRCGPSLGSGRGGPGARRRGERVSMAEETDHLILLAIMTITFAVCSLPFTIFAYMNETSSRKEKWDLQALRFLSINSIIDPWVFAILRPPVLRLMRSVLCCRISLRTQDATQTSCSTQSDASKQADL

| EC50 | SMILES |
| --- | --- |
| 2.4 nM | O=C(O)c1csc([C@H]2CC[C@@H]3[C@@H](COc4ccc5c(c4F)CCC5)[C@H](O)C[C@@H]3O2)n1 [1(19), 2-[(2R,4aR,5S,6R,7aS)-5-{[(4-fluoro-2,3-dihydro-1H-inden-5-yl)oxy]methyl}-6-hydroxyoctahydrocyclopenta[b]pyran-2-yl]-1,3-thiazole-4-carboxylic acid] |
| 1.1 nM | O=C(O)c1csc([C@H]2CC[C@@H]3[C@@H](COc4cccc5c4CCC5)[C@H](O)C[C@@H]3O2)n1 [1(13), 2-{(2R,4aR,5S,6R,7aS)-5-[(2,3-dihydro-1H-inden-4-yloxy)methyl]-6-hydroxyoctahydrocyclopenta[b]pyran-2-yl}-1,3-thiazole-4-carboxylic acid] |
| 0.074 nM | CSc1cc(OC[C@@H]2[C@H]3CC[C@H](c4nc(C(=O)O)cs4)O[C@H]3C[C@@H]2O)ccc1C [9(25)] |
| 0.33 nM | CCc1cc(OC[C@@H]2[C@H]3CC[C@H](c4nc(C(=O)O)cs4)O[C@H]3C[C@@H]2O)ccc1C [9(4), 2-{(2R,4aR,5S,6S,7aS)-5-[(3-ethyl-4-methylphenoxy)methyl]-6-hydroxyoctahydrocyclopenta[b]pyran-2-yl}-1,3-thiazole-4-carboxylic acid] |
| 2.4 nM | CCc1ccc(OC[C@@H]2[C@H]3CC[C@H](c4nc(C(=O)O)cs4)O[C@H]3C[C@@H]2O)cc1C1CC1 [9(35), 2-{(2R,4aR,5S,6S,7aS)-5-[(3-cyclopropyl-4-ethylphenoxy)methyl]-6-hydroxyoctahydrocyclopenta[b]pyran-2-yl}-1,3-thiazole-4-carboxylic acid] |
| 0.9 nM | Cc1cc(OC[C@@H]2[C@H]3CC[C@H](c4nc(C(=O)O)cs4)O[C@H]3C[C@H]2O)ccc1Cl [1(5), 2-{(2R,4aR,5S,6R,7aS)-5-[(4-chloro-3-methylphenoxy)methyl]-6-hydroxyoctahydrocyclopenta[b]pyran-2-yl}-1,3-thiazole-4-carboxylic acid] |
| 2.3 nM | O=C(O)c1csc([C@H]2CC[C@@H]3[C@@H](COc4ccc(Cl)c(C5CC5)c4)[C@H](O)C[C@@H]3O2)n1 [1(22), 2-{(2R,4aR,5S,6R,7aS)-5-[(4-chloro-3-cyclopropylphenoxy)methyl]-6-hydroxyoctahydrocyclopenta[b]pyran-2-yl}-1,3-thiazole-4-carboxylic acid] |
| 0.82 nM | CCc1cc(OC[C@@H]2[C@H]3CC[C@H](c4nc(C(=O)O)cs4)O[C@H]3C[C@H]2O)ccc1C [1(17), 2-{(2R,4aR,5S,6R,7aS)-5-[(3-ethyl-4-methylphenoxy)methyl]-6-hydroxyoctahydrocyclopenta[b]pyran-2-yl}-1,3-thiazole-4-carboxylic acid] |
| 0.91 nM | O=C(O)c1csc([C@H]2CC[C@@H]3[C@@H](COc4ccc5c(c4F)CCC5)[C@@H](O)C[C@@H]3O2)n1 [9(5), 2-[(2R,4aR,5S,6S,7aS)-5-{[(4-fluoro-2,3-dihydro-1H-inden-5-yl)oxy]methyl}-6-hydroxyoctahydrocyclopenta[b]pyran-2-yl]-1,3-thiazole-4-carboxylic acid] |
| 12 nM | O=C(O)c1csc([C@H]2CC[C@@H]3[C@@H](COc4ccccc4)[C@H](O)C[C@@H]3O2)n1 [1(27), 2-[(2R,4aR,5S,6R,7aS)-6-hydroxy-5-(phenoxymethyl)octahydrocyclopenta[b]pyran-2-yl]-1,3-thiazole-4-carboxylic acid] |
| 2.8 nM | O=C(O)c1csc([C@H]2CC[C@@H]3[C@@H](COc4ccc(C5CC5)c(C5CC5)c4)[C@@H](O)C[C@@H]3O2)n1 [Example 9, 2-{(2R,4aR,5S,6S,7aS)-5-[(3,4-dicyclopropylphenoxy)methyl]-6-hydroxyoctahydrocyclopenta[b]pyran-2-yl}-1,3-thiazole-4-carboxylic acid] |
| 0.16 nM | Cc1ccc(OC[C@@H]2[C@H]3CC[C@H](c4nc(C(=O)O)cs4)O[C@H]3C[C@@H]2O)cc1Cl [9(3), 2-{(2R,4aR,5S,6S,7aS)-5-[(3-chloro-4-methylphenoxy)methyl]-6-hydroxyoctahydrocyclopenta[b]pyran-2-yl}-1,3-thiazole-4-carboxylic acid] |
| 3.5 nM | CCc1ccc(OC[C@@H]2[C@H]3CC[C@H](c4nc(C(=O)O)cs4)O[C@H]3C[C@@H]2O)cc1C1CCC1 [9(36), 2-{(2R,4aR,5S,6S,7aS)-5-[(3-cyclobutyl-4-ethylphenoxy)methyl]-6-hydroxyoctahydrocyclopenta[b]pyran-2-yl}-1,3-thiazole-4-carboxylic acid] |
| 14 nM | O=C(O)c1csc([C@H]2CC[C@@H]3[C@@H](COc4ccc5c(c4)CC5)[C@H](O)C[C@@H]3O2)n1 [1(15), 2-{(2R,4aR,5S,6R,7aS)-5-[(bicyclo[4.2.0]octa-1,3,5-trien-3-yloxy)methyl]-6-hydroxyoctahydrocyclopenta[b]pyran-2-yl}-1,3-thiazole-4-carboxylic acid] |
| 5.5 nM | O=C(O)c1csc([C@H]2CC[C@@H]3[C@@H](COc4ccc5ccoc5c4)[C@H](O)C[C@@H]3O2)n1 [1(16), 2-{(2R,4aR,5S,6R,7aS)-5-[(1-benzofuran-6-yloxy)methyl]-6-hydroxyoctahydrocyclopenta[b]pyran-2-yl}-1,3-thiazole-4-carboxylic acid] |
| 7.5 nM | O=C(O)c1csc([C@H]2CC[C@@H]3[C@@H](COc4ccc5c(c4)CCC5)[C@H](O)C[C@@H]3O2)n1 [1(6), 2-{(2R,4aR,5S,6R,7aS)-5-[(2,3-dihydro-1H-inden-5-yloxy)methyl]-6-hydroxyoctahydrocyclopenta[b]pyran-2-yl}-1,3-thiazole-4-carboxylic acid] |
| 1.6 nM | O=C(O)c1csc([C@H]2CC[C@@H]3[C@@H](COc4ccc5c(c4)CCCCC5)[C@@H](O)C[C@@H]3O2)n1 [9(33)] |
| 1.6 nM | CCc1ccc(OC[C@@H]2[C@H]3CC[C@H](c4nc(C(=O)O)cs4)O[C@H]3C[C@@H]2O)cc1CC [9(23), 2-{(2R,4aR,5S,6S,7aS)-5-[(3,4-diethylphenoxy)methyl]-6-hydroxyoctahydrocyclopenta[b]pyran-2-yl}-1,3-thiazole-4-carboxylic acid] |
| 0.86 nM | O=C(O)c1csc([C@H]2CC[C@@H]3[C@@H](COc4ccc5c(c4)CCC5)[C@@H](O)C[C@@H]3O2)n1 [9(1), 2-{(2R,4aR,5S,6S,7aS)-5-[(2,3-dihydro-1H-inden-5-yloxy)methyl]-6-hydroxyoctahydrocyclopenta[b]pyran-2-yl}-1,3-thiazole-4-carboxylic acid] |
| 3.3 nM | Cc1ccc(OC[C@@H]2[C@H]3CC[C@H](c4nc(C(=O)O)cs4)O[C@H]3C[C@H]2O)cc1C [1(7), 2-{(2R,4aR,5S,6R,7aS)-5-[(3,4-dimethylphenoxy)methyl]-6-hydroxyoctahydrocyclopenta[b]pyran-2-yl}-1,3-thiazole-4-carboxylic acid] |
| 19 nM | O=C(O)c1csc([C@H]2CC[C@@H]3[C@@H](COc4ccc5[nH]ccc5c4)[C@H](O)C[C@@H]3O2)n1 [1(12), 2-{(2R,4aR,5S,6R,7aS)-6-hydroxy-5-[(1H-indol-5-yloxy)methyl]octahydrocyclopenta[b]pyran-2-yl}-1,3-thiazole-4-carboxylic acid] |

same assay, conditions: prior-art compounds having an analogous structure, same EP2 test; read-out: EP2 agonist activities, EC50 values

| EC50 | SMILES |
| --- | --- |
| ≥ 10000 nM | O=C(O)c1csc([C@H]2CC[C@@H]3[C@@H](/C=C/[C@@H](O)COc4ccccc4)[C@H](O)C[C@@H]3OC2)n1 [reference compound] |
| ≥ 10000 nM | CCCCC[C@H](O)/C=C/[C@@H]1[C@H]2CCC(c3ccccc3CC(=O)O)O[C@H]2C[C@H]1O (some centres unmarked) [reference compound] |
